Literature values in patent publication US6384084B2, “Histochrome and its therapeutic use in ophthalmology” (Tikhookeansky Institut Bioorganicheskoi Khimii …, priority 1998, dated 2002).

Experiments:
[1] = rabbits, 0.5% solution, subconjunctival and parabulbar
[2] = patients, 0.5% solution

Structure (SMILES)	Effect on epithelization of the cornea and inflammatory processes in eye burns [1]	Pain at the time of administration [2]	Resorption of intraocular hemorrhages (injection of a 1% solution)	Adverse effect in the course of therapy (monitoring of blood coagulation required)
CCc1c(O)c(O)c2c(c1O)C(=O)C(O)=C(O)C2=O [echinochrome, 2,3,5,6,8-pentahydroxy-7-ethyl-1,4-naphthoquinone]	able to facilitate epithelization of the cornea at early stages of the treatment of eye burns and to alleviate inflammatory processes in the eye	patients experienced acute pain at the time of administration	–	–
CCc1nc(C)ccc1O [Emoxipin]	–	–	facilitates the resorption of intraocular hemorrhages	liable to cause reccurrent hemorrhages
